# From the supplement of paper PMC10307832
# How the values were obtained:
# Assay in all cases: relative viability (nuclei count vs DMSO), 5 days (fraction); higher = more cells survive
# [1] = compound: C1=CC=C2C(=C1)N=C(S2)C(C#N)C3=NC(=NC=C3)NCCC4=CN=CC=C4 + Cc1nc(Nc2ncc(C(=O)Nc3c(C)cccc3Cl)s2)cc(N2CCN(CCO)CC2)n1 [Dasatinib] (partner 0.075 µM)
# In short: (§1)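 The day after seeding in 1536-well plates, lung cancer cell lines were treated by pin tool with a single drug, or with a fixed anchor-drug dose together with five library-drug doses (not always all listed) in √10 steps. After 5 days, a combined fix-and-stain solution (final 0.05% Triton X-100, 1% formaldehyde, 1 ug/ml Hoechst) was added. Nuclei counted on 4× images gave relative viability as treated counts over vehicle counts, reported as the median of duplicate plates.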
# [2] = compound: C1=CC=C2C(=C1)N=C(S2)C(C#N)C3=NC(=NC=C3)NCCC4=CN=CC=C4 + NC(=O)Nc1cc(-c2cccc(F)c2)sc1C(=O)N[C@H]1CCCNC1 [AZD7762] (partner 0.2 µM)
# In short: as §1
# [3] = compound: COc1cc(N2CCC(N3CCN(C)CC3)CC2)ccc1Nc1ncc(Cl)c(Nc2ccccc2S(=O)(=O)C(C)C)n1 [NVP-TAE684] + COc1cccc2cc(-c3nc([C@H]4CC[C@H](C(=O)O)CC4)n4ncnc(N)c34)[nH]c12 [OSI-027] (partner 0.5 µM)
# In short: as §1
# [4] = compound: COc1cc(N2CCC(N3CCN(C)CC3)CC2)ccc1Nc1ncc(Cl)c(Nc2ccccc2S(=O)(=O)C(C)C)n1 [NVP-TAE684] + CS(=O)(=O)N1CCN(Cc2cc3nc(-c4cccc5[nH]ncc45)nc(N4CCOCC4)c3s2)CC1 [Pictilisib] (partner 1 µM)
# In short: as §1
# [5] = compound: COc1cc(N2CCC(N3CCN(C)CC3)CC2)ccc1Nc1ncc(Cl)c(Nc2ccccc2S(=O)(=O)C(C)C)n1 [NVP-TAE684] + Nc1nc2[nH]cc(CCc3ccc(C(=O)N[C@@H](CCC(=O)O)C(=O)O)cc3)c2c(=O)[nH]1 [Pemetrexed] (partner 0.2 µM)
# In short: as §1
Cell Line,relative viability ([1]; first compound 0.005 µM),relative viability ([1]; first compound 0.01581 µM),relative viability ([1]; first compound 0.05 µM),relative viability ([1]; first compound 0.1581 µM),relative viability ([1]; first compound 0.5 µM),relative viability ([2]; first compound 0.005 µM),relative viability ([2]; first compound 0.01581 µM),relative viability ([2]; first compound 0.05 µM),relative viability ([2]; first compound 0.1581 µM),relative viability ([2]; first compound 0.5 µM),relative viability ([3]; first compound 0.2 µM),relative viability ([3]; first compound 0.6325 µM),relative viability ([3]; first compound 2 µM),relative viability ([4]; first compound 0.2 µM),relative viability ([4]; first compound 0.6325 µM),relative viability ([4]; first compound 2 µM),relative viability ([5]; first compound 0.2 µM),relative viability ([5]; first compound 0.6325 µM),relative viability ([5]; first compound 2 µM)
201T,0.799,0.523,0.599,0.549,0.486,0.542,0.674,0.69,0.707,0.56,0.762,0.732,0.474,0.699,0.676,0.652,0.334,0.332,0.323
A549,,,,,,,,,,,,,,0.534,0.407,0.108,,,
A-427,0.66,0.743,0.764,0.688,0.822,0.816,0.727,0.682,0.764,0.645,0.548,0.396,0.285,0.735,,0.652,,0.914,0.788
ABC-1,0.634,0.459,0.631,0.573,0.397,0.913,0.809,0.789,0.921,0.848,0.393,0.419,0.179,0.546,0.493,0.298,,,
BEN,0.229,0.323,0.326,0.479,0.425,0.759,0.609,0.689,0.85,0.774,0.27,0.311,0.265,0.467,0.472,0.527,0.843,0.728,0.682
CAL-12T,0.236,0.308,0.341,0.508,0.242,0.571,0.575,0.628,0.608,0.543,0.538,0.372,0.158,0.36,0.245,0.305,0.973,1.16,0.492
COR-L23,0.427,0.516,0.499,0.581,0.489,,,,,,0.818,0.804,0.316,0.51,0.442,0.173,0.205,0.203,0.197
COR-L 105,0.344,0.297,0.34,0.303,0.29,,,,,,0.636,0.441,0.268,0.307,0.281,0.264,1.01,0.98,
Calu-6,,,,,,,,,,,,,,0.954,0.741,0.444,,,
ChaGo-K-1,,0.567,0.577,0.681,0.545,0.781,0.886,0.911,0.884,0.764,0.589,0.546,0.416,1.14,0.424,0.776,0.273,0.246,0.264
EBC-1,,,,,,,,,,,,,,0.364,0.348,0.212,,,
EKVX,0.464,0.473,0.523,0.473,0.547,0.704,0.777,0.682,0.85,0.604,0.577,0.698,0.521,0.437,0.354,0.319,0.376,0.337,0.254
EMC-BAC-2,0.334,0.359,0.364,0.388,0.324,1.13,1.04,0.945,1.22,0.875,0.364,0.344,0.324,0.527,0.513,0.456,0.429,0.405,0.433
EPLC-272H,0.283,0.304,0.264,0.374,0.312,0.307,0.243,0.254,0.25,0.21,0.227,0.251,0.203,0.285,,0.184,0.425,0.297,0.15
H3255,0.312,0.329,0.346,0.509,0.319,0.993,0.876,0.912,0.916,0.829,0.531,0.602,0.4,0.454,0.424,0.256,0.531,0.519,0.449
HARA,0.355,0.281,0.246,0.235,0.372,0.2,0.358,0.38,0.275,0.356,0.538,0.351,0.281,0.459,0.238,0.275,0.262,0.211,0.233
HCC-15,0.569,0.578,0.564,0.703,0.508,1.02,1.23,1.25,1.51,1.24,0.631,0.525,0.381,0.718,0.738,0.737,0.245,0.204,0.182
HCC-44,,,,,,1.12,0.984,1.01,0.997,0.998,0.525,0.428,0.218,0.658,0.602,0.412,0.652,,0.606
HCC-78,0.386,0.337,0.42,0.609,0.407,0.619,0.593,0.739,0.697,0.576,0.339,0.254,0.348,0.207,0.138,0.172,0.886,0.912,0.93
HCC-366,0.591,0.848,0.539,0.824,0.676,0.199,0.254,0.288,0.279,0.129,1.15,0.772,0.401,0.0975,0.105,0.113,0.197,0.178,0.227
HCC-827,0.331,0.301,0.336,0.307,0.284,0.201,0.176,0.225,0.235,0.19,0.681,0.743,0.848,1.14,0.84,0.968,0.259,0.262,0.261

Cell Line,relative viability ([1]; first compound 0.005 µM),relative viability ([1]; first compound 0.01581 µM),relative viability ([1]; first compound 0.05 µM),relative viability ([1]; first compound 0.1581 µM),relative viability ([1]; first compound 0.5 µM),relative viability ([2]; first compound 0.005 µM),relative viability ([2]; first compound 0.01581 µM),relative viability ([2]; first compound 0.05 µM),relative viability ([2]; first compound 0.1581 µM),relative viability ([2]; first compound 0.5 µM),relative viability ([3]; first compound 0.2 µM),relative viability ([3]; first compound 0.6325 µM),relative viability ([3]; first compound 2 µM),relative viability ([4]; first compound 0.2 µM),relative viability ([4]; first compound 0.6325 µM),relative viability ([4]; first compound 2 µM),relative viability ([5]; first compound 0.2 µM),relative viability ([5]; first compound 0.6325 µM),relative viability ([5]; first compound 2 µM)
HOP-62,0.496,0.59,0.685,0.807,0.565,0.271,0.824,0.705,0.542,0.534,0.902,0.878,,0.815,0.75,0.754,0.34,0.392,0.345
IA-LM,,,,,,,,,,,,,,0.253,0.176,0.202,,,
LC-2-ad,0.542,0.398,0.55,0.525,0.396,0.674,0.847,0.83,0.968,0.692,0.804,0.673,0.317,0.333,0.578,0.344,0.241,0.269,0.232
NCI-H520,0.231,0.158,0.188,0.324,0.18,,,,,,0.281,0.287,0.199,0.337,0.3,0.228,0.694,0.823,0.326
NCI-H522,0.873,0.822,0.884,1.05,0.935,0.885,0.654,0.768,0.787,0.839,,0.702,0.554,,,,1.13,1.07,0.799
NCI-H661,0.778,0.785,0.817,0.917,0.805,,,,,,0.717,0.821,0.585,0.449,0.426,0.429,0.959,0.924,0.894
NCI-H727,,0.387,0.368,0.413,0.347,0.788,0.533,0.667,0.626,0.618,0.68,0.411,0.372,0.373,0.388,0.261,,,
NCI-H1299,,,,,,,,,,,,,,0.601,0.707,0.364,,,
NCI-H1563,0.536,0.413,0.426,0.44,0.473,,,,,,0.736,0.678,0.596,0.597,0.63,0.495,0.757,0.692,0.654
NCI-H1623,0.476,0.476,0.514,0.612,0.591,,,,,,0.337,0.402,0.34,,,,,,
NCI-H1648,,,,,,,0.689,,0.569,0.604,0.255,0.226,0.216,,,,,,0.415
NCI-H1650,0.449,0.278,0.324,0.372,0.263,,,,,,0.374,0.437,0.217,0.564,0.405,0.161,0.382,0.35,0.353
NCI-H1703,,,,,,0.118,0.121,0.123,0.109,0.108,,,,0.225,0.243,0.172,,,
NCI-H2009,0.257,0.25,0.261,0.324,0.267,,,,,,0.603,0.449,0.302,0.949,0.68,0.514,1.06,1.01,0.894
NCI-H2023,0.454,0.519,0.504,0.78,0.364,,,,,,0.412,0.258,0.101,0.244,0.137,0.109,0.258,0.186,0.123
NCI-H2228,0.295,0.491,0.442,0.514,0.423,,,,,,0.247,0.137,0.16,0.281,0.167,0.223,0.29,0.332,0.121
NCI-H2342,0.32,0.314,0.349,0.328,0.337,0.546,0.484,0.49,0.583,0.467,,0.585,0.34,,,,0.93,0.771,0.493
SK-LU-1,0.174,0.184,0.189,0.188,0.199,,,,,,0.31,0.37,0.181,0.501,0.524,0.444,0.826,1,0.575
SK-MES-1,0.303,0.403,0.394,0.327,0.371,,,,,,0.447,0.529,0.352,0.475,0.393,0.309,0.999,0.855,0.686
SW 900,0.625,0.53,0.564,0.844,0.543,0.693,0.634,0.548,0.622,0.533,0.536,0.425,0.703,,,,0.548,0.443,0.449
SW 1573,0.587,0.44,,0.494,0.324,,,,,,0.741,0.455,0.226,0.571,0.471,0.39,0.843,0.732,0.396
